{"source": "patent US7087575B2", "about": "“Treating the effect of nicotine” (Mayo Foundation for Medical Education and Research, priority 2002, dated 2006)", "key": {"[1]": {"tested_on": "dopamine and its metabolites", "experiment": "Dopamine and metabolites in striatum and PFC by HPLC-EC after in vivo treatment", "parameters": "species or system rat", "procedure": "Striatal dopamine: Brain dopamine levels were analyzed using high performance liquid chromatography with electrochemical detection (HPLC-EC, ESA, Inc., Chemsford, Mass.), according to previously described procedures (Kilts et al. (1981) J. Chromatogr. 225:347–357; and Krstulovic (1982) J. Chromatogr. 229:1–34). Rats were sacrificed by decapitation, brains were removed, and the striatal tissue was weighed and homogenized in 10 volumes of ice-cold 0.1 N perchloric acid containing 10 mM EDTA. Tissue homogenates were centrifuged at 26,000×g for 10 minutes at 4° C. A 20 μl aliquot of the diluted supernatant was injected onto an HPLC system with an MD-150/RP-C18 column (ESA). The mobile phase contained 10% acetonitrile with 75 mM sodium dihydrogen phosphate, 1.7 mM 1-octane sulfonic acid sodium salt, 0.01% triethylamine, and 25 μM EDTA, pH 3.0. The flow rate was maintained at 0.5 ml/minute. The detector potentials were set at: 350 mV; E1:−175 mV and E2:250 mV. The concentration of dopamine in each sample was quantified by comparison of area under curve (AUC) between samples and external standards run on the same day.\nSprague Dawley rats were treated as described above. Animals were sacrificed on day 15 after being tested for locomotor activity. Striatal and PFC tissues were harvested on ice and frozen at −80° C. until being assayed for dopamine metabolism as detailed in Example 1."}, "norepinephrine": {"tested_on": "norepinephrine", "experiment": "Norepinephrine levels in brain tissue after in vivo treatment", "parameters": "species or system rat", "procedure": "Sprague Dawley rats were treated as described above. Animals were sacrificed on day 15 after being tested for locomotor activity. PFC sections were harvested on ice and frozen at −80° C. until being assayed for norepinephrine levels."}, "Sprague Dawley rats": {"tested_on": "Sprague Dawley rats", "experiment": "Nicotine-induced locomotor activity, daily treatment for 15 days", "type": "in vivo, rat", "procedure": "(§1) Animals and treatment protocol: Male Sprague-Dawley rats weighing 200–250 g were housed in a temperature-controlled room with free access to food and water under artificial 12 hour light/dark cycle. All tests were conducted during the light cycle. The animals received an intraperitoneal (i.p.) injection of either NT69L (1 mg/kg) or an equivalent volume (100 μl) of saline. Thirty minutes after the first injection, the rats received subcutaneous (s.c.) injections of saline or nicotine (0.35 mg/kg). These injections were repeated once a day for 15 days. On days 1 and 15, rats were placed in a Plexiglass Opto-Varimax Minor motility chamber (Columbus Instruments, Columbus, Ohio) and allowed to acclimate for one hour. Baseline activity was recorded for 30 minutes for each rat. The rats then were injected with either saline or NT69L and replaced in the chamber. After 30 minutes, each rat was injected with either saline or nicotine and returned to the chamber. Activity was recorded for 60 minutes. After testing for locomotor activity on day 15, animals were sacrificed. Brain sections were dissected on ice and maintained on dry ice until they were frozen at −80° C., at which temperature they were stored until being assayed. [^3H] cytisine binding: Nicotinic receptor binding sites in membrane homogenates of frozen tissue were measured using [^3H] cytisine according to the method of Pabreza et al. [(1991) Mol. Pharmacol. 39:9–12]. Frozen tissue was resuspended in 50 mM Tris-HCl buffer (pH 7.4), homogenized with a Brinkmann Polytron (setting 6), and washed twice in fresh Tris buffer by centrifugation at 35000×g. The resulting pellets were resuspended in buffer. Aliquots of homogenates were added to tubes containing [^3H] cytisine in the presence or absence of 100 μM nicotine and incubated in a final volume of 250 μl for 75 minutes at 4° C. The binding reactions were terminated by filtration through GF/B filter paper that was mounted on a Brandel cell harvester. Filters were presoaked in 0.5% polyethylenimine to reduce binding of radioligand to the filter. The filters were washed 3 times with cold 0.9% NaCl and counted in a scintillation counter. The data were analyzed using the PC version of the ligand software program. Specific binding was defined as the difference between binding in the presence and absence of 100 μM nicotine.\nSprague Dawley rats were divided into seven groups and injected daily for 14 days with the treatment listed outside the parentheses under each pair of columns in FIG. 1. On day 15, the rats were injected with the treatment listed inside the parentheses under each pair of columns. Locomotor activity was recorded on days 1 and 15. Rats were placed in a motility chamber for one hour for acclimation. A 30 minute baseline was recorded for each rat. The rats were injected with either saline or NT69L and placed in the chamber for 30 minutes. Each rat was then removed from the chamber, injected with either nicotine or saline, and returned to the chamber. Activity was recorded for 60 minutes, and is shown in counts per 10 minute interval."}, "[2]": {"tested_on": "Nicotinic receptor binding sites", "experiment": "[3H] cytisine binding in brain membrane homogenates after in vivo treatment", "parameters": "species or system rat", "conditions": "for increase in cytisine binding in the VTA: vs saline control, only chronic injection of NT69L significant (P<0.05)", "procedure": "as §1\nSprague Dawley rats were maintained and treated as described above. Animals were sacrificed on day 15 after being tested for locomotor activity. PFC and VTA sections were harvested on ice and frozen at −80° C until being assayed for cytisine binding as described in Example 1."}, "rats": {"tested_on": "rats", "experiment": "Nicotine sensitization, weekly treatment for six weeks, locomotor activity", "type": "in vivo, rat", "procedure": "as §1\nFor a longer term study of nicotine sensitization, rats were divided into seven groups that were treated once a week for six weeks with saline or NT69L followed by a challenge with saline or 0.35 mg/kg nicotine. These experiments allowed examination of both the initiation and expression phases of sensitization. Group 1 received saline/saline each week. Group 2 received saline/saline for the first five weekly treatments, and saline/nicotine in the sixth week. Group 3 received saline/nicotine each week. Group 4 received NT69L/saline each week. Group 5 received NT69L/nicotine each week. Group 6 received NT69L/nicotine for the first five weekly treatments, and saline/nicotine in the sixth week. Group 7 received saline/nicotine for the first five weekly treatments, and NT69L/nicotine in the sixth week. Locomotor activity was measured after each weekly treatment, as described in Example 1."}, "dopamine D2 receptor": {"tested_on": "dopamine D2 receptor", "experiment": "Dopamine D2 receptor binding assay ([3H] raclopride) in striatum after in vivo treatment", "parameters": "species or system rat", "procedure": "Dopamine D2 receptor binding assay: Homogenized brain tissue was assayed for dopamine D2 receptor binding by the method of Bowden et al. [(1997) Brain Res. 752:227–233]. Briefly, brain tissue was homogenized in buffer (50 mM Tris-HCl, 5 mM KCl and 120 mM NaCl, pH 7.5) and centrifuged at 26,000×g for 10 minutes at 4° C. Pellets were resuspended in buffer to 1 mg/10 μl and immediately used for binding. Aliquots of […] tissue homogenates were added to 25 PI [^3H] raclopride and 25 μl buffer (for total binding) or 25 μl of […] sulipride (for nonspecific binding) in a total volume of 250 μl, and incubated at room temperature for 90 minutes. Membrane-bound radioactivity was recovered by filtration under vacuum through Whatman GF/B filters using a Brandel cell harvester. Filters were washed with ice-cold PBS and radioactivity was determined by liquid scintillation counting. Protein levels were quantified using the Micro BCA assay (Pierce, Rockford, Ill.)."}}}
{"molecule": "CN1CCCC1c1cccnc1", "note": "(stereo not shown) [nicotine]", "values": [{"measurement": "levels of dopamine and its metabolites as compared to saline control", "setting": "[1]; PFC, fifteen daily injections of nicotine", "value": 232, "unit": "%"}, {"measurement": "increase in levels of dopamine and its metabolites", "setting": "[1]; PFC, single injection of nicotine, P<0.05", "value": 400, "unit": "%"}, {"measurement": "increase in striatal dopamine levels", "setting": "[1]; striatum, single injection of nicotine vs sal/sal(sal/sal), P<0.05", "value": 192, "unit": "%"}, {"measurement": "increase of norepinephrine levels in the PFC", "setting": "norepinephrine; acute and chronic treatment with nicotine vs saline control, P<0.05", "value": "213–300%"}, {"measurement": "increase in peak activity (sensitization)", "setting": "Sprague Dawley rats; daily nicotine injections, day 1 vs. day 15", "value": "> 60", "unit": "%"}, {"measurement": "peak level of locomotor activity", "setting": "Sprague Dawley rats; single injection of nicotine 0.35 mg/kg s.c. vs control group sal/sal(sal/sal), P<0.001", "value": "significantly increased"}, {"measurement": "increase of cytisine binding in prefrontal cortex", "setting": "[2]; fifteen daily injections of nicotine vs saline control, P<0.05", "value": 62, "unit": "%"}, {"measurement": "cytisine binding in the PFC", "setting": "[2]; single nicotine injection on day 15 vs sal/sal(sal/sal)", "value": "tended to increase cytisine binding in the PFC, but not to a significant level"}, {"measurement": "increase in cytisine binding in the VTA", "setting": "[2]", "value": 35, "unit": "%"}, {"measurement": "locomotor activity after nicotine challenge without NT69L", "setting": "rats; nicotine 0.35 mg/kg in the sixth week only (group 2)", "value": "resulted in hyperactivity"}, {"measurement": "locomotor activity after nicotine challenge without NT69L", "setting": "rats; nicotine challenge each week (group 3)", "value": "resulted in increased activity"}]}
{"molecule": "N-methyl-Arg-Lys-Pro-L-neo-Trp-tert-Leu-Leu [NT69L]", "values": [{"measurement": "dopamine (D2) receptor binding in striatum across nicotine and NT69L treatment groups", "setting": "dopamine D2 receptor", "value": "No difference"}, {"measurement": "lowering of the nicotine-induced increase in dopamine", "setting": "[1]; PFC, injection of NT69L for 15 days", "value": 62, "unit": "%"}, {"measurement": "lowering of the nicotine-induced increase in dopamine", "setting": "[1]; PFC, pretreating with NT69L before nicotine injection on day 15", "value": 28, "unit": "%"}, {"measurement": "effect on dopamine levels in the striatum", "setting": "[1]; pretreatment with NT69L", "value": "did not significantly affect"}, {"measurement": "reduction in norepinephrine levels", "setting": "norepinephrine; PFC, daily injections of NT69L, single injection of nicotine", "value": 40, "unit": "%"}, {"measurement": "norepinephrine in the striatum between treatment groups", "setting": "norepinephrine; striatum", "value": "No significant differences"}, {"measurement": "reduction of nicotine-induced hyperactivity", "setting": "Sprague Dawley rats; acute injection of NT69L 1 mg/kg i.p. on day 1, 30 minutes prior to nicotine, P<0.001", "value": 24, "unit": "%"}, {"measurement": "reduction of the magnitude of locomotor sensitization", "setting": "Sprague Dawley rats; daily injection of NT69L", "value": 24, "unit": "%"}, {"measurement": "locomotor activity 69/sal vs sal/sal groups (sedation)", "setting": "Sprague Dawley rats; day 1, NT69L 1 mg/kg i.p. without nicotine", "value": "no significant difference"}, {"measurement": "activity compared with saline after fifteen days of treatment", "setting": "Sprague Dawley rats; sal/nic(sal/nic) vs. 69/nic(69/nic), P<0.05", "value": "statistically significant reduction in activity"}, {"measurement": "sensitized nicotine-induced activity after NT69L", "setting": "Sprague Dawley rats; single injection of NT69L 30 minutes prior to nicotine on the fifteenth day of nicotine administration, P<0.001", "value": "10 % of control"}, {"measurement": "reduction of cytisine binding caused by acute nicotine injection", "setting": "[2]; PFC, NT69L daily for 15 days, acute, but not chronic, nicotine", "value": 62, "unit": "%"}, {"measurement": "reduction of the increase in cytisine binding caused by 15 daily injections of nicotine", "setting": "[2]; PFC, acute injection of NT69L prior to nicotine on day fifteen", "value": 65, "unit": "%"}, {"measurement": "increase in cytisine binding in the VTA", "setting": "[2]", "value": 35, "unit": "%"}, {"measurement": "effect on nicotine-induced hyperactivity", "setting": "rats; NT69L before nicotine challenge each week (group 5)", "value": "largely prevented the hyperactivity"}, {"measurement": "activity after NT69L in the sixth week", "setting": "rats; five weeks nicotine without NT69L, then NT69L/nicotine in week six (group 7)", "value": "significant decrease in activity"}, {"measurement": "initiation and expression of nicotine sensitization", "setting": "rats; weekly treatment for six weeks", "value": "effectively blocked"}]}
